Laboratory results from patent US20120264691 (published 2012).
Entries after “also recorded” stand apart in the source; their conditions may differ.

Columns and labels:
[1] = 0.1M HCl aqueous solution (pH: 1.1); settings: 25±2° C., up to 72 hours
[2] = Britton-Robinson buffer solution (pH 7.0); settings: 40±1° C.
[3] = Mcllvain buffer solutions (pH: 2.0, 3.0, 4.0, 5.0, 6.0, 7.0, 8.0); settings: 25±2° C., up to 72 hours
[4] = purified water, pH 4.7, or adjusted to pH 1.8, 3.9 (hydrochloric acid) and 7.8 (sodium hydroxide); settings: 25±2° C., up to 3 day
[5] = Britton-Robinson buffer solutions having pH of 2.1, 3.1, 4.0, 5.0, 6.0, 7.0 and 7.9; settings: 40±1° C., up to 1 day

Substance: GSS(n-octanoyl)FLSPEHQRVQQRKESKKPPAKLQPR
- cleaved bond [1]: hydrolytic cleavage of octanoyl group, 8 hr.
- cleaved bond ([2]; up to 14 days): hydrolytic cleavage of octanoyl group of human ghrelin, major, 4 days; also recorded: β-elimination of octanoyl group of human ghrelin, major, 4 days
- fragment found ([2]; up to 14 days): degradation product D = desacyl human ghrelin (3-28), 14 days; also recorded: degradation product E = [N^α—CO—C(═CH2)—OH]human ghrelin(4-28), 14 days
- cleaved bond [3]: hydrolytic cleavage of octanoyl group, 8 hr.
- cleaved bond [4]: hydrolytic cleavage of octanoyl group, 1 day
- fragment found [4]: Dha compound, 1 day
- cleaved bond [5]: hydrolytic cleavage of octanoyl group, 1 day

Substance: desacylated human ghrelin
- fragment found ([2]; up to 14 days): desacyl human ghrelin (3-28), major, 14 days

Substance: [3-Dehydroalanine]human ghrelin
- fragment found ([2]; up to 3 days): [N^α—CO—C(═CH2)—OH]human ghrelin(4-28) (2nd degradation product of Dha compound), 3 days
